Measurements taken from US20250120975A1, “INTEGRIN INHIBITORS FOR TREATMENT OF PRIMARY SCLEROSING CHOLANGITIS” (Pliant Therapeutics, Inc., priority 2023, published 2025).

Assays:
[1] = tested on: BALB/c.Mdr2−/− mouse model of biliary fibrosis; assay: Direct (invasive) portal venous pressure measurement; type: in vivo; conditions: 100, 300, 1000 mg/kg PO/QD, 6 weeks
Procedure: Antifibrotic activity of (S)-4-((2-methoxyethyl)(4-(5,6,7,8-tetrahydro-1,8-naphthyridin-2-yl)butyl)amino)-2-(quinazolin-4-ylamino)butanoic acid was tested in the BALBc.Mdr2−/− murine model of liver biliary fibrosis. […] BALBc.Mdr2−/− mice develop periductular fibrotic lesions at 4 weeks with rapid and progressive fibrotic progression. Bridging fibrosis and early cirrhosis is observed at 12 weeks along with severe portal hypertension and enhanced collagen deposition.
The tissue source is BALBc.Mdr2-/−male mice that were 6 weeks old. The Mdr2(abcb4)−/− mouse model of sclerosing cholangitis has been previously described and is a model of spontaneously progressive hepatic fibrosis in mice with deletion of the biliary phospholipid flippase on fibrosis-susceptible background (Mdr2(abcb4)^−/−. BALB/c mouse). See N. Ikenaga, et al. (2015) Am J Pathol. 185 (2): 325-334, the entire contents of which are hereby incorporated by reference in their entirety. […]
After laparotomy, the portal vein of the mouse subject was cannulated through an ileocolic vein, and portal pressure was measured directly by inserting a 1.2-Fr high-fidelity pressure catheter. Pressure signals were recorded at 2 kHz for 5 Min, and analyzed using PowerLab software. […]

[2] = tested on: BALB/c.Mdr2−/− mouse model of biliary fibrosis; assay: Liver and kidney biochemistries in serum (ALT, ALP, total bilirubin); type: in vivo; conditions: 6 weeks
Excerpt: The tissue source is BALBc.Mdr2-/−male mice that were 6 weeks old. The Mdr2(abcb4)−/− mouse model of sclerosing cholangitis has been previously described and is a model of spontaneously progressive hepatic fibrosis in mice with deletion of the biliary phospholipid flippase on fibrosis-susceptible background (Mdr2(abcb4)^−/−. BALB/c mouse). See N. Ikenaga, et al. (2015) Am J Pathol. 185 (2): 325-334, the entire contents of which are hereby incorporated by reference in their entirety.
(S)-4-((2-methoxyethyl)(4-(5,6,7,8-tetrahydro-1,8-naphthyridin-2-yl)butyl)amino)-2-(quinazolin-4-ylamino)butanoic acid (or PBS) was dosed once daily orally at 100 mg/kg, 300 mg/kg or 1000 mg/kg (see Table B-2) starting at 6 weeks after birth of the subject and continuing for 6 weeks. All animals were euthanized and necropsied at the end of week 12.
Determination of ALT, ALP, and total bilirubin was performed as conventional liver and kidney function tests at the clinical biochemistry core (BIDMC).

[3] = tested on: PCLivS from human liver tissue with biliary fibrosis (PSC, PBC); assay: Fibrotic gene expression (NanoString) in precision cut liver slices; type: cell-based; conditions: for % Inhibition of expression COL1A1 / % Inhibition of expression COL1A2: PCLivS from a single PSC liver
Excerpt: A human liver tissue explant was obtained from a PSC patient undergoing liver transplantation.
Slicing: To slice, 8-mm cores were punctured from the liver tissue and were stored in ice cold UW solution until slicing. A tissue core was glued onto the center of the plunger of the specimen syringe for slicing. The core was embedded in 2% low gelling temperature agarose made up in milliQ water. The thickness of the slice was adjusted to 400 μm and was sectioned into oxygenated KHB occurs. The slices were stored in cold UW solution on ice until all slices were cut.
Culture: The compounds were diluted to 1000× concentration in 100% DMSO. The compounds were diluted in a medium with a final concentration of 0.1% DMSO before transferring the slices and making a fresh medium for each 24-H medium change. Before being used for slice culture, all media was equilibrated in the incubator at culture conditions for 30 minutes. After all slices have been cut, all slices were transferred to wells prefilled with oxygenated, warmed, and equilibrated WEGG. The slices were incubated for 1 hour in the incubator at a temperature of 37° C., 5% CO2, 80% 02, 100% humidity on shaking platform set at 55 rpm. After this one-hour recovery, the slices were transferred to wells prefilled with oxygenated, warmed, and equilibrated WEGG with appropriate treatments. The slices were distributed into the treatment groups to account for inter-core variability. The slices were cultured at 37° C., 80% 02, 5% CO2, 100% humidity on shaking platform set at 55 rpm. The medium was changed after 24 hours.
The slices were removed from the well and rinsed in PBS. Excess liquid was removed. The slices were transferred to a microtube pooling all three slices from the same treatment into one tube. The pooled slices were snap frozen in liquid nitrogen and placed on dry ice until all samples were collected and then transferred to −80° C. for storage. For media collection, 140 μL of medium was pooled from each well within a treatment group and transferred to a 96-well Axygen plate. After sealing the plate, spin down occurred at 4000×g for 10 minutes at 4° C. Then, 130 μL aliquots were transferred into 3 new plates. The plates were sealed and stored at −80° C.
(S)-4-((2-methoxyethyl)(4-(5,6,7,8-tetrahydro-1,8-naphthyridin-2-yl)butyl)amino)-2-(quinazolin-4-ylamino)butanoic acid was tested at 100 nM, 1 μM, and 10 μM. OCA, an FXR agonist in clinical trials for PSC, was used at 250 nM and 2.5 μM reflecting Cmax levels observed in clinical trials. An ALK5 inhibitor (R268712) was used at 1 μM (400 times its IC50 per manufacturer) to target max inhibition of the ALK5 receptor.
Methods: Lysis buffer was made with one third RLT buffer in RNAse-free water and 2 mg/mL proteinase K. About 100-200 μL lysis buffer was added to each pool of 3 liver slices. Samples were incubated at 55° C. in the bead bath for 2 hours and 45 minutes, vortexing every 30 minute. Samples were centrifuged and the supernatant aliquoted in 15 μL aliquots into 96-well Axygen plates.
Methods: nCounter PlexSet was run according to standard protocol. Briefly, probe A and probe B were diluted with TE-tween to Working Probe Pools and mixed with hybridization buffer. This master mix was added to the A-H PlexSets and mixed. Each PlexSet was added across a row to a 96 well qPCR plate and proteinase K was added to a final concentration of 2 mg/mL. Lysate from samples was added to appropriate wells and mixed. The plate was sealed, spun, and placed in thermocycler at 67° C. for 16 hours. Hybridized samples were pooled down columns and 35 μL were loaded on a Sprint Cartridge and run on the nCounter Sprint. Data analysis was performed in nSolver using background thresholding based on negative controls, positive control normalization, reference sample normalization and normalization to housekeeping genes (GUSB, HPRT1, POLR1B, RPLP0, SRFS4, and/or UBC). […]

[4] = relative to inhibition with high dose ALK5 inhibitor, PCLivS from 10 livers

COCCN(CCCCc1ccc2c(n1)NCCC2)CC[C@H](Nc1ncnc2ccccc12)C(=O)O [Bexotegrast, (S)-4-((2-methoxyethyl)(4-(5,6,7,8-tetrahydro-1,8-naphthyridin-2-yl)butyl)amino)-2-(quinazolin-4-ylamino)butanoic acid]
portal venous pressure [1]: did not induce any changes | serum alkaline phosphatase levels ([2]; 1000 mg/kg, vs vehicle): significantly decreased | serum ALT levels ([2]; 100, 300, 1000 mg/kg): did not change | serum total bilirubin levels ([2]; 100, 300, 1000 mg/kg): dose dependent trend down | % Inhibition of expression COL1A1 ([3]; 100 nM, 2 days): −6% | % Inhibition of expression COL1A2 ([3]; 100 nM, 2 days): −8% | % Inhibition of expression COL1A1 ([3]; 1 μM, 2 days): 27% | % Inhibition of expression COL1A2 ([3]; 1 μM, 2 days): 9% | % Inhibition of expression COL1A1 ([3]; 10 μM, 2 days): 61% | % Inhibition of expression COL1A2 ([3]; 10 μM, 2 days): 41% | dose dependence of COLIA1 and COLIA2 mRNA expression ([3]; PCLivS from human PSC liver tissue, 2 days): reduced in a dose dependent manner | inhibition of the TGF-β-driven COL3A1 expression [3, 4]: ≤ 41% | inhibition of the TGF-β-driven COLIA1 expression [3, 4]: up to 28% | inhibition of the TGF-β-driven TGF-81 expression [3, 4]: ≤ 48% | trend down in overall expression of COLIA1 ([3]; ≥1 μM, PCLivS from 10 livers with biliary fibrosis (6 PSC, 4 PBC), 2 days): 22%
